Laboratory results taken from patent publication US11129867B2, “Method of treating cancer cells” (priority 2017, dated 2021).
Where a SMILES comes first, the peptide text is derived from it. The star is where a group is joined. X1 = CN(C)c1ccc2c(-c3ccc(C(=O)*)cc3C(=O)[O-])c3ccc(=[N+](C)C)cc-3oc2c1

Columns and labels:
Huh7 = assay: WST-8 cell viability assay, Huh7; format: cell-based; conditions: Huh7 (liver cancer), different concentrations, 48 hours, FIG. 3
Method: (§1) Human oral squamous cell carcinoma (OSCC) cell lines, Ca922, OSC20, OECM-1, OC3, CGHNC9, HSC3, plus A549, MDA-MB-231, MCF7, Huh7, HeLa-Kyoto, Detroit 562, H520, H2170, and 293T cells were used in this study. Ca922, CGHNC9, MDA-MB-231, MCF7, Huh7, HeLa-Kyoto, Detroit 562, and 293T cells were all cultured in high-glucose Dulbecco's Modified Eagle Medium (DMEM). OSC20 and HSC3 cells were cultured in Dulbecco's Modified of Eagle's Medium/Ham's F-12 50/50 Mix (1:1). OECM-1, A549, H520, and H2170 cells were grown in RPMI-1640 medium. All culture media were supplemented with 10% fetal bovine serum (FBS) and 1% penicillin-streptomycin. OC3 cells were cultured in 1:1 DMEM/KSFM (keratinocyte serum-free medium) with supplied supplement of Bovine pituitary extract (BPE) and epidermal growth factor (EGF) followed by instruction. All the cells in this study were maintained at 37° C. in humidified atmosphere containing 5% CO2.
(§2) WST-8 [2-(2-methoxy-4-nitrophenyl)-3-(4-nitrophenyl)-5-(2,4-disulfophenyl)-2H-tetrazolium, monosodium salt] cell viability assay
(§3) Cells were seeded into 96 well plate and incubated at 37° C. overnight. […] The amount of formazan produced is proportional to the number of live cells and is expressed as cellular viability. […] Cell viability was measured at the absorbance of 450/655 nm wavelength by ELISA reader.

Ca922 cells = assay: Time-lapse live cell imaging, Ca922; format: cell-based
Method: Ca922 cells were grown on 35 mm culture dishes overnight then treated with 1% DMSO, 12.5 μM TMR, GBP, TMR-GBP respectively and monitored by time-lapse live cell microscope. Cells were exposed to indicate wavelength once every 4 hours for 100 ms and continuously for 20 hours. At least 300 cells in five different fields were counted for each experiment using microcopy that captured images under 10× magnification. Mortality rate was evaluated by counting the percentage of dead cells in the whole population. Standard deviations of three independent experiments were indicated as bars.
Time-Lapse Live Cell Imaging
In order to monitor cell morphology and the stability of TMR-GBP, cells were incubated in 35 mm dish or 4 well dish at 37° C. overnight. Replaced the culture medium with CO2-independent medium with supplement of 10% fetal bovine serum (FBS) and 1% penicillin-streptomycin, cells were treated with reagent (TMR, GBP, TMR-GBP) for the time according to the experiment and subjected to time-lapse live cell imaging. Cells were maintained on the microscope stage incubator at 37° C. Multiple-positional time-lapse imaging was performed using an automated Leica DMI6000 inverted microscope equipped with an HCX PL FL 20λ/NA0.4 objective and Andor Luca R EMCCD camera. Images of cells were taken at different interval time and analyzed by MetaMorph software.

293T = assay: WST-8 cell viability assay, 293T; format: cell-based; conditions: 293T (embryonic kidney), different concentrations, 48 hours, FIG. 3
Method: as §1, §2, §3

HeLa-Kyoto = assay: WST-8 cell viability assay, HeLa-Kyoto; format: cell-based; conditions: HeLa-Kyoto (cervical cancer), different concentrations, 48 hours, FIG. 3
Method: as §1, §2, §3

[1] = test system: mitochondria of Ca922 cells; assay: Immunofluorescence staining of TOM20 and cytochrome-c; format: cell-based, human; conditions: Ca922, different dose, 8 or 24 hours, FIG. 7
Method: Ca922 cells were treated with different doses of TMR-GBP for 8 or 24 hours and then fixed with 4% formaldehyde. Representative images showing the staining of mitochondria marker TOM20 and cytochrome-c. Scale bar indicates 10 μm.
Immunofluorescence Staining
Cells grown on coverslips were washed with 1×PBS and fixed by PTEMF buffer (20 mM PIPES pH 6.8, 0.2% Triton X-100, 10 mM EGTA, 1 mM MgCl2, and 4% formaldehyde) or 4% paraformaldehyde for 10 minutes at room temperature. Then, fixation buffer was replaced with 1×PBST and the cells were washed with 1×PBST for another 10 minutes at room temperature. Coverslips were washed with 1×PBST twice gently and incubated with primary antibodies at room temperature for 1 hour. Next, washed with PBST for three times (2, 2, 5 minutes). Afterwards, coverslips were cultured in Alex Fluor-conjugated secondary antibodies and DAPI at room temperature for 30 minutes, washed three times (2, 2, 5 minutes), rinsed with ddH2O and mounted with mounting medium. Antibodies concentration used in this analysis is 1:1000 dilution. Images were acquired with specific fluorescence wavelength by Leica DMI6000 inverted microscope equipped with HCX PL FL 100λ/NA1.40 objective and EMCCD camera. All images were analyzed by MetaMorph software.

MDA-MB-231 = assay: WST-8 cell viability assay, MDA-MB-231; format: cell-based; conditions: MDA-MB-231 (breast cancer), different concentrations, 48 hours, FIG. 3
Method: as §1, §2, §3

## CN(C)c1ccc2c(-c3ccc(C(=O)N[C@@H](CC(N)=O)C(=O)N[C@@H](Cc4ccc(O)cc4)C(=O)N[C@@H](CCCNC(=N)N)C(=O)N[C@@H](Cc4c[nH]c5ccccc45)C(=O)N[C@@H](CCCNC(=N)N)C(=O)N[C@@H](CS)C(=O)N[C@@H](CCCCN)C(=O)N[C@@H](CC(N)=O)C(=O)N[C@@H](CCC(N)=O)C(=O)N[C@@H](CC(N)=O)C(=O)O)cc3C(=O)[O-])c3ccc(=[N+](C)C)cc-3oc2c1 [TMR-GBP] (X1-NYRWRCKNQN-OH; N-terminus and C-terminus assumed)
Huh7
  cell viability: not markedly affected
Ca922 cells; Ca922, 12.5 μM, exposed to 532 nm, 488 nm, 405 nm and brightfield, after 20 hours, FIG. 2
  cytotoxicity under light stress (mortality): more sensitive to 532 nm light stress and displayed cytotoxic effects
Ca922 cells; Ca922, unbound TMR-GBP removed, imaged at 15 minutes interval for 16 hours, FIG. 4
  cell death by time-lapse microscopy: most cells die in 8 hours
293T
  cell viability: not markedly affected
HeLa-Kyoto
  cell viability: not markedly affected
[1]
  cytochrome-c release: Cytochrome-c release upon TMR-GBP treatment was also detected
  morphology of mitochondria (TOM20): became fragmented when the concentration of TMR-GBP was increased or the treatment time was extended
MDA-MB-231
  cell viability: not markedly affected
